Source: patent US7851474B2, “Dipiperazinyl ketones and related analogues” (Neurogen Corporation, priority 2005, dated 2010)

These compounds were tested against T1, chimeric human H3 receptor (Homo sapiens, UniProt Q9Y5N1, E19D) (assay: Chimeric human H3 receptor screening GTP binding assay (inhibition of histamine-stimulated GTP-gamma35S binding, Example 8)). Settings: 1 h; assay described in Example 8; symbol + in column headed Ki of Table II; read-out: percent inhibition of agonist-induced GTP-gammaS binding to H3.
T1 construct: made in house; host or cells: Sf9 insect cells (baculovirus infection); P2 membrane preparation
Assay type: biochemical
Description: This Example illustrates a representative screening assay for evaluating inhibition of histamine-stimulated GTP-gamma^35S binding. Such GTP binding activity can be used to identify H3 antagonists and inverse agonists. A compound analyzed in this assay is referred to herein as a “test compound,” and the initial identification of antagonists and inverse agonists is performed using a test compound concentration of 4 μM.
Four independent baculoviral stocks (one directing the expression of the chimeric human H3 receptor and three directing the expression of each of the three subunits of a heterotrimeric G-protein) are used to infect a culture of Sf9 cells as described above. P2 membranes are prepared as described above, and are resuspended by Dounce homogenization (tight pestle) in GTP binding assay buffer (50 mM Tris pH 7.4, 120 mM NaCl, 5 mM MgCl2, 2 mM EGTA, 1 mg/ml BSA, 0.2 mg/ml bacitracin, 0.02 mg/ml aprotinin, 0.01 mg/ml saponin, 10 μM GDP) and added to assay tubes at a concentration of 35 μg protein/reaction tube. Non-radiolabeled test compounds are added to separate reactions at a concentration of 4 μM along with 1 μM histamine (agonist). Reactions are initiated by the addition of 125 pM GTP-gamma^35S with a final assay volume of 0.20 ml.
After a 60-min incubation at room temperature, reactions are terminated by vacuum filtration over GF/C filters (pre-soaked in 50 mM Tris pH 7.4, 120 mM NaCl plus 0.1% BSA) followed by washing with ice-cold buffer (50 mM Tris pH 7.4, 120 mM NaCl). The amount of receptor-bound (and thereby membrane-bound) GTP-gamma^35S is determined by measuring the bound radioactivity, preferably by liquid scintillation spectrometry of the washed filters. Non-specific binding is determined using 10 uM GTP-gammaS and typically represents less than 5 percent of total binding. After subtraction of non-specific binding, data is expressed as percent inhibition of 1 μM histamine signal.
Neutral antagonists are those test compounds that reduce the histamine-stimulated GTP binding activity towards, but not below, baseline levels. In contrast, in the absence of added histamine, inverse agonists reduce the GTP binding activity of the receptor-containing membranes below baseline. Any test compound that elevates GTP binding activity above baseline in the absence of added histamine in this assay is defined as having agonist activity.

T1 sequence (Q9Y5N1 with tags, fused parts or gaps E19D): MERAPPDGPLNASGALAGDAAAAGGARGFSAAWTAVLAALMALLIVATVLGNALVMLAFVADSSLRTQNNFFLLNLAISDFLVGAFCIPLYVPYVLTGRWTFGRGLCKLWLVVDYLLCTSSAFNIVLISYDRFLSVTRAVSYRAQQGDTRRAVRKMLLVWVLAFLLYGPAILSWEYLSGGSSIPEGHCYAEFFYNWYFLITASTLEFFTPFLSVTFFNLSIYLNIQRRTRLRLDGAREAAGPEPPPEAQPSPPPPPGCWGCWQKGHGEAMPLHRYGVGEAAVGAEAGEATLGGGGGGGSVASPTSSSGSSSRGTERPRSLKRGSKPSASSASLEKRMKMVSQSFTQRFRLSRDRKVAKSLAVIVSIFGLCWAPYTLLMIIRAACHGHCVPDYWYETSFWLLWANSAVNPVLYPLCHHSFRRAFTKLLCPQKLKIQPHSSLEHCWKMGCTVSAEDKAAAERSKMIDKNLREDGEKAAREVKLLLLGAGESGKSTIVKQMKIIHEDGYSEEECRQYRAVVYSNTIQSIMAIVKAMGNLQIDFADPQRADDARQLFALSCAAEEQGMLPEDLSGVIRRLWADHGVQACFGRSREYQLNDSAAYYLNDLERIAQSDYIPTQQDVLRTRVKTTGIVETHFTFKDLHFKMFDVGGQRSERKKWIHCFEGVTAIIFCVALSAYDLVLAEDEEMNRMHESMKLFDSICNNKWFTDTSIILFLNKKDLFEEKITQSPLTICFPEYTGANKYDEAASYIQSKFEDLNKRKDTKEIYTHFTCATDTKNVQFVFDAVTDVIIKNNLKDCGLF

Row | inhibition at 4 µM [%] | SMILES
1 | > 90 | O=C(/C=C/c1ccc2c(c1)OCO2)N1CCN(CC(=O)N2CCN(C3CCC3)CC2)CC1 [Compound 385, 1-[(2E)-3-(1,3-benzodioxol-5-yl)prop-2-enoyl]-4-[2-(4-cyclobutylpiperazin-1-yl)-2-oxoethyl]piperazine]
2 | > 90 | COc1cc(Br)c(/C=C/C(=O)N2CCN(CC(=O)N3CCN(C4CCC4)CC3)CC2)cc1OC [Compound 386, 1-[(2E)-3-(2-bromo-4,5-dimethoxyphenyl)prop-2-enoyl]-4-[2-(4-cyclobutylpiperazin-1-yl)-2-oxoethyl]piperazine]
3 | > 90 | COc1ccc(/C=C/C(=O)N2CCN(CC(=O)N3CCN(C4CCC4)CC3)CC2)c(Cl)c1OC [Compound 387, 1-[(2E)-3-(2-chloro-3,4-dimethoxyphenyl)prop-2-enoyl]-4-[2-(4-cyclobutylpiperazin-1-yl)-2-oxoethyl]piperazine]
4 | > 90 | O=C(/C=C/c1c(F)cccc1Cl)N1CCN(CC(=O)N2CCN(C3CCC3)CC2)CC1 [Compound 388, 1-[(2E)-3-(2-chloro-6-fluorophenyl)prop-2-enoyl]-4-[2-(4-cyclobutylpiperazin-1-yl)-2-oxoethyl]piperazine]
5 | > 90 | O=C(/C=C/c1ccccc1Cl)N1CCN(CC(=O)N2CCN(C3CCC3)CC2)CC1 [Compound 389, 1-[(2E)-3-(2-chlorophenyl)prop-2-enoyl]-4-[2-(4-cyclobutylpiperazin-1-yl)-2-oxoethyl]piperazine]
6 | > 90 | O=C(/C=C/c1cccc(Cl)c1)N1CCN(CC(=O)N2CCN(C3CCC3)CC2)CC1 [Compound 390, 1-[(2E)-3-(3-chlorophenyl)prop-2-enoyl]-4-[2-(4-cyclobutylpiperazin-1-yl)-2-oxoethyl]piperazine]
7 | > 90 | O=C(/C=C/c1ccc(Cl)cc1)N1CCN(CC(=O)N2CCN(C3CCC3)CC2)CC1 [Compound 391, 1-[(2E)-3-(4-chlorophenyl)prop-2-enoyl]-4-[2-(4-cyclobutylpiperazin-1-yl)-2-oxoethyl]piperazine]
8 | > 90 | CCOc1ccc(Br)cc1/C=C/C(=O)N1CCN(CC(=O)N2CCN(C3CCC3)CC2)CC1 [Compound 392, 1-[(2E)-3-(5-bromo-2-ethoxyphenyl)prop-2-enoyl]-4-[2-(4-cyclobutylpiperazin-1-yl)-2-oxoethyl]piperazine]
9 | > 90 | COc1ccc(Br)cc1/C=C/C(=O)N1CCN(CC(=O)N2CCN(C3CCC3)CC2)CC1 [Compound 393, 1-[(2E)-3-(5-bromo-2-methoxyphenyl)prop-2-enoyl]-4-[2-(4-cyclobutylpiperazin-1-yl)-2-oxoethyl]piperazine]
10 | > 90 | O=C(/C=C/c1ccc(-c2ccccc2)cc1)N1CCN(CC(=O)N2CCN(C3CCC3)CC2)CC1 [Compound 394, 1-[(2E)-3-biphenyl-4-ylprop-2-enoyl]-4-[2-(4-cyclobutylpiperazin-1-yl)-2-oxoethyl]piperazine]
11 | > 90 | O=C(CN1CCN(C(=O)c2sccc2Br)CC1)N1CCN(C2CCC2)CC1 [Compound 395, 1-[(3-bromo-2-thienyl)carbonyl]-4-[2-(4-cyclobutylpiperazin-1-yl)-2-oxoethyl]piperazine]
12 | > 90 | O=C(CN1CCN(C(=O)c2sc3ccccc3c2Cl)CC1)N1CCN(C2CCC2)CC1 [Compound 397, 1-[(3-chloro-1-benzothien-2-yl)carbonyl]-4-[2-(4-cyclobutylpiperazin-1-yl)-2-oxoethyl]piperazine]
13 | > 90 | O=C(CN1CCN(C(=O)c2sccc2Cl)CC1)N1CCN(C2CCC2)CC1 [Compound 398, 1-[(3-chloro-2-thienyl)carbonyl]-4-[2-(4-cyclobutylpiperazin-1-yl)-2-oxoethyl]piperazine]
14 | > 90 | Cn1nc(C(C)(C)C)cc1C(=O)N1CCN(CC(=O)N2CCN(C3CCC3)CC2)CC1 [Compound 401, 1-[(3-tert-butyl-1-methyl-1H-pyrazol-5-yl)carbonyl]-4-[2-(4-cyclobutylpiperazin-1-yl)-2-oxoethyl]piperazine]
15 | > 90 | CCn1nc(C)c(Br)c1C(=O)N1CCN(CC(=O)N2CCN(C3CCC3)CC2)CC1 [Compound 402, 1-[(4-bromo-1-ethyl-3-methyl-1H-pyrazol-5-yl)carbonyl]-4-[2-(4-cyclobutylpiperazin-1-yl)-2-oxoethyl]piperazine]
16 | > 90 | O=C(CN1CCN(C(=O)c2ccc(Br)s2)CC1)N1CCN(C2CCC2)CC1 [Compound 410, 1-[(5-bromo-2-thienyl)carbonyl]-4-[2-(4-cyclobutylpiperazin-1-yl)-2-oxoethyl]piperazine]
17 | > 90 | O=C(CN1CCN(C(=O)c2cncc(Br)c2)CC1)N1CCN(C2CCC2)CC1 [Compound 411, 1-[(5-bromopyridin-3-yl)carbonyl]-4-[2-(4-cyclobutylpiperazin-1-yl)-2-oxoethyl]piperazine]
18 | > 90 | CCCCc1ccc(C(=O)N2CCN(CC(=O)N3CCN(C4CCC4)CC3)CC2)nc1 [Compound 412, 1-[(5-butylpyridin-2-yl)carbonyl]-4-[2-(4-cyclobutylpiperazin-1-yl)-2-oxoethyl]piperazine]
19 | > 90 | COc1ncc(Cl)cc1C(=O)N1CCN(CC(=O)N2CCN(C3CCC3)CC2)CC1 [Compound 413, 1-[(5-chloro-2-methoxypyridin-3-yl)carbonyl]-4-[2-(4-cyclobutylpiperazin-1-yl)-2-oxoethyl]piperazine]
20 | > 90 | O=C(CN1CCN(C(=O)c2ccc(Cl)s2)CC1)N1CCN(C2CCC2)CC1 [Compound 414, 1-[(5-chloro-2-thienyl)carbonyl]-4-[2-(4-cyclobutylpiperazin-1-yl)-2-oxoethyl]piperazine]

Row | SMILES | inhibition at 4 µM [%]
21 | O=C(COc1ccccc1Cl)N1CCN(CC(=O)N2CCN(C3CCC3)CC2)CC1 [Compound 383, 1-[(2-chlorophenoxy)acetyl]-4-[2-(4-cyclobutylpiperazin-1-yl)-2-oxoethyl]piperazine] | > 90
22 | O=C(Cc1ccccc1Cl)N1CCN(CC(=O)N2CCN(C3CCC3)CC2)CC1 [Compound 384, 1-[(2-chlorophenyl)acetyl]-4-[2-(4-cyclobutylpiperazin-1-yl)-2-oxoethyl]piperazine] | > 90
23 | O=C(Cc1cccc(Br)c1)N1CCN(CC(=O)N2CCN(C3CCC3)CC2)CC1 [Compound 396, 1-[(3-bromophenyl)acetyl]-4-[2-(4-cyclobutylpiperazin-1-yl)-2-oxoethyl]piperazine] | > 90
24 | O=C(COc1cccc(Cl)c1)N1CCN(CC(=O)N2CCN(C3CCC3)CC2)CC1 [Compound 399, 1-[(3-chlorophenoxy)acetyl]-4-[2-(4-cyclobutylpiperazin-1-yl)-2-oxoethyl]piperazine] | > 90
25 | O=C(Cc1cccc(Cl)c1)N1CCN(CC(=O)N2CCN(C3CCC3)CC2)CC1 [Compound 400, 1-[(3-chlorophenyl)acetyl]-4-[2-(4-cyclobutylpiperazin-1-yl)-2-oxoethyl]piperazine] | > 90
26 | O=C(Cc1ccc(Br)cc1)N1CCN(CC(=O)N2CCN(C3CCC3)CC2)CC1 [Compound 403, 1-[(4-bromophenyl)acetyl]-4-[2-(4-cyclobutylpiperazin-1-yl)-2-oxoethyl]piperazine] | > 90
27 | COc1cc(Cl)ccc1OCC(=O)N1CCN(CC(=O)N2CCN(C3CCC3)CC2)CC1 [Compound 404, 1-[(4-chloro-2-methoxyphenoxy)acetyl]-4-[2-(4-cyclobutylpiperazin-1-yl)-2-oxoethyl]piperazine] | > 90
28 | Cc1cc(Cl)ccc1OCC(=O)N1CCN(CC(=O)N2CCN(C3CCC3)CC2)CC1 [Compound 405, 1-[(4-chloro-2-methylphenoxy)acetyl]-4-[2-(4-cyclobutylpiperazin-1-yl)-2-oxoethyl]piperazine] | > 90
29 | O=C(COc1ccc(Cl)cc1)N1CCN(CC(=O)N2CCN(C3CCC3)CC2)CC1 [Compound 406, 1-[(4-chlorophenoxy)acetyl]-4-[2-(4-cyclobutylpiperazin-1-yl)-2-oxoethyl]piperazine] | > 90
30 | O=C(Cc1ccc(Cl)cc1)N1CCN(CC(=O)N2CCN(C3CCC3)CC2)CC1 [Compound 407, 1-[(4-chlorophenyl)acetyl]-4-[2-(4-cyclobutylpiperazin-1-yl)-2-oxoethyl]piperazine] | > 90
31 | CC(C)(C)c1ccc(OCC(=O)N2CCN(CC(=O)N3CCN(C4CCC4)CC3)CC2)cc1 [Compound 408, 1-[(4-tert-butylphenoxy)acetyl]-4-[2-(4-cyclobutylpiperazin-1-yl)-2-oxoethyl]piperazine] | > 90
